One data set has as its system MCF7 Cells. Description: in vitro direct cytotoxicity, Cell titer blue viability assay. In kind it is cell-based. The conditions noted are these: MCF7 cells (hormone-sensitive), 72 hrs incubation, 1% FBS assay media. How it is done:
(§1) Cells were maintained in vitro in RPMI 1640 containing 10% (v/v) heat inactivated fetal bovine serum (FBS) and 2 mM L-glutamine (growth media) at 37° C. in 5% CO2 and humidified conditions. Cells were harvested, washed, re-suspended into growth medium and counted. The cells were re-suspended into assay media (RPMI 1640+1% (v/v) heat inactivated FBS+ and 2 mM L-glutamine) at 0.5-1×10^5 cells/ml (dependent on cell type), and plated into 96-well assay plates (Corning, black-wall plates) and 50 μl/well aliquots.
(§2) Plates were incubated O/N at 37° C. in 5% humidified CO2 prior to addition of the compounds. […] Fosfestrol was dissolved in sterile water at stock concentration of 60 mM.
(§3) Stocks of all compounds were then serially diluted and final concentration to which cells were exposed were: 300, 150, 75, 37.5, 18.75, 9.4, 4.7, 2.3, 1.2 and 0.6 μM. Positive control was Cisplatin. Cisplatin was diluted in 1% FBS medium to give a stock concentration of 1 mM. Cisplatin stock was serial diluted and final concentration to which cells were exposed was: 100, 50, 25, 12.5, 6.3, […], 1.6, 0.8, 0.4, 0.2 μM.
(§4) Plates were incubated for 72 hrs at 37° C. in 5% humidified CO-2 after addition of the compounds. Viability of the cells was assessed with the Cell titer blue® (Promega) assay. […] Fluorescence was measured with a Flex II station plate reader. […]

Another data set concerns MDA-MB-231 Cells. The description is as above. The note with it: MDA-MB-231 cells (hormone-insensitive), 72 hrs incubation, 1% FBS assay media. The class given is cell-based. How it is done: as §1, §2, §3, §4
The subject of another data set is MCF-7 cells. The note with it: 4 days, 5 μM (2 μg/ml); cited from earlier work.
For data set [1] the following is noted: prostate cancer patients, 5 mg p.o. per day; cited from earlier work.
The test system of data set [2] is postmenopausal breast cancer patients heavily exposed to endocrine therapy. The note with it: 15 mg daily p.o., cited from earlier work.
Data set [3] concerns postmenopausal women with metastatic breast cancer. The conditions noted are these: women initially treated; cited from earlier work.
Data set [4] has as its system hormone independent mammary carcinomas. The note with it: very high doses in vivo; cited from earlier work.

As for `N.N.[Cl][Pt][Cl]` [Cisplatin], the IC50 in the data set with MCF7 Cells turned out to be 2.8 µM; in the data set with MDA-MB-231 Cells, 13 µM.

As for `CC/C(=C(/CC)c1ccc(OP(=O)(O)O)cc1)c1ccc(O)cc1` [DES monophosphate], the “reduction in cell growth” value in the data set with MCF-7 cells is on record as “no effect at all”.

For `CC/C(=C(/CC)c1ccc(O)cc1)c1ccc(O)cc1` [DES, diethylstilbestrol], in data set [1], the “increase in non-cancer related deaths, mostly cardiovascular” value is on record as 36%. In data set [2], the “efficacy in highly pretreated patients” value is listed as “effective”. Also, the “patients who stopped therapy because of side effects” value in data set [2] (six patients) is listed as 19%. Besides, in data set [3], the 5-year survival is 35% and the median survival was 3.0 years. For the same compound, in the data set on MCF-7 cells, the “reduction in cell growth” value is “no effect at all”. Moreover, the “effect on hormone independent mammary carcinomas” value in data set [4] is given as “no effect”.

As to `CC/C(=C(\c1ccccc1)c1ccc(OCCN(C)C)cc1)c1ccccc1` [tamoxifen], in data set [3], the 5-year survival is recorded as 16% and the median survival is on record as 2.4 years.

Source of the values: patent US20160199298A1, “FOSFESTROL FOR USE IN CURATIVE OR PALLIATIVE TREATMENT OF CANCER IN FEMALE MAMMALS” (CHAMAELEO PHARMA BVBA, priority 2012, published 2016).
